Laboratory results: US20240115557A1, “INHIBITORS OF RNA-GUIDED NUCLEASES AND USES THEREOF” (The Brigham and Women's Hospital, Inc., priority 2022, published 2024)

Biological target: SpCas9 (Streptococcus pyogenes serotype M1, UniProt Q99ZW2)
Assay: eGFP disruption assay, SpCas9, U2OS.eGFP.PEST cells
Format: cell-based
Settings: for Normalized Z rep1 / Z score Rep1: replicate 1; for SpCas9 eGFP disruption Rep1: replicate 1, raw readout; for Normalized Z rep2 / Z socre Rep2: replicate 2; for SpCas9 eGFP disruption Rep2: replicate 2, raw readout
Excerpt: In some embodiments, the secondary assay may be an EGFP disruption assay. In such assay, a quantitative human cell-based reporter assay that enables rapid quantitation of targeted nuclease activities is used to characterize off-target cleavage of Cas9-based RNA guided endonucleases. In this assay, the activities of nucleases targeted to a single integrated EGFP reporter gene can be quantified by assessing loss of fluorescence signal in human U2OS.EGFP cells caused by inactivating frameshift insertion/deletion (indel) mutations introduced by error prone non-homologous end-joining (NHEJ) repair of nuclease-induced double-stranded breaks (DSBs).
In one protocol, U2OS.EGFP cells harboring a single integrated copy of an EGFP-PEST fusion gene are cultured (see e.g., Reyon et al., Nat Biotech 30, 460-465 (2012), which is herein incorporated by reference in its entirety). For transfections, 200,000 cells are Nucleofected with gRNA expression plasmid and pJDS246 together with 30 ng of a Td-tomato-encoding plasmid using the SE Cell Line 4D-Nucleofector™ X Kit (Lonza) according to the manufacturer's protocol. Cells are analyzed 2 days post-transfection using a BD LSRII flow cytometer. Transfections for optimizing gRNA/Cas9 plasmid concentration are performed in triplicate and all other transfections are performed in duplicate. PCR amplification is used for sequence verification of endogenous human genomic sites. PCR reactions are performed using Phusion Hot Start II high-fidelity DNA polymerase (NEB). Loci are amplified using touchdown PCR (98° C., 10 s; 72-62° C., −1° C./cycle, 15s; 72° C., 30 s] 10 cycles, [98° C., 10s; 62° C., 15s; 72° C., 30 s] 25 cycles). Alternatively, PCR for other targets is performed with 35 cycles at a constant annealing temperature of 68° C. or 72° C., and 3% DMSO or IM betaine, if necessary. PCR products are analyzed on a QIAXCEL capillary electrophoresis system to verify both size and purity. Validated products are treated with ExoSap-IT (Affymetrix) and sequenced by the Sanger method (MGH DNA Sequencing Core) to verify each target site.
Primary and secondary screening. The primary screen assayed a selection of unique chemical scaffolds derived from commercially available compounds and known bioactive molecular libraries (Table 7). Auto-fluorescent compounds were removed by a counter screen. Overall, the CAA was used to assay 122,409 small molecules with over 2,500 unique chemical scaffolds (FIG. 64F, Table 7). Of these compounds, 547 were selected as hits (Z score >3 in both replicates) for testing in orthogonal cell-based secondary assays. Hits were tested in duplicate in an eGFP disruption assay, wherein U2OS.eGFP.PEST cells^33 transfected with SpCas9 plasmid and eGFP-targeting gRNA plasmid were incubated with 20 μM of the compounds. In this assay, any compound that inhibited SpCas9 would rescue the loss of eGFP fluorescence. Here, toxic and auto-fluorescent compounds with a high GFP signal in cells were removed as false positives. […] Next, Applicants tested the 15 compounds in a luminescence-based gain-of-signal HiBiT knock-in assay, which involves SpCas9-mediated homology-directed tagging of GAPDH with a short peptide that luminesces upon complementation with a subunit derived from nanoluciferase.^34 Complementarily, the eGFP-disruption assay is fluorescence-based and involves error-prone DNA repair. As a counter-screen to remove false positives caused by cell death (viability <80%), the cell viability was measured after incubation.
For SAR studies and dose-response studies, 300,000 U2OS.eGFP.PEST cells were nucleofected with 300 ng of SpCas9 plasmid (Addgene #43861) and 30 ng of eGFP-targeting gRNA plasmid (Addgene #47511)^33 using SE Cell Line 4D-Nucleofector X Kit (Lonza) following the pulse program of DN-100. For RNP-based genome editing, 10 pmol of SpCas9 (GenScript #Z03385) and 12 pmol of gRNA were mixed and incubated for 5 min. […]

Chain of SpCas9 (Q99ZW2 whole entry): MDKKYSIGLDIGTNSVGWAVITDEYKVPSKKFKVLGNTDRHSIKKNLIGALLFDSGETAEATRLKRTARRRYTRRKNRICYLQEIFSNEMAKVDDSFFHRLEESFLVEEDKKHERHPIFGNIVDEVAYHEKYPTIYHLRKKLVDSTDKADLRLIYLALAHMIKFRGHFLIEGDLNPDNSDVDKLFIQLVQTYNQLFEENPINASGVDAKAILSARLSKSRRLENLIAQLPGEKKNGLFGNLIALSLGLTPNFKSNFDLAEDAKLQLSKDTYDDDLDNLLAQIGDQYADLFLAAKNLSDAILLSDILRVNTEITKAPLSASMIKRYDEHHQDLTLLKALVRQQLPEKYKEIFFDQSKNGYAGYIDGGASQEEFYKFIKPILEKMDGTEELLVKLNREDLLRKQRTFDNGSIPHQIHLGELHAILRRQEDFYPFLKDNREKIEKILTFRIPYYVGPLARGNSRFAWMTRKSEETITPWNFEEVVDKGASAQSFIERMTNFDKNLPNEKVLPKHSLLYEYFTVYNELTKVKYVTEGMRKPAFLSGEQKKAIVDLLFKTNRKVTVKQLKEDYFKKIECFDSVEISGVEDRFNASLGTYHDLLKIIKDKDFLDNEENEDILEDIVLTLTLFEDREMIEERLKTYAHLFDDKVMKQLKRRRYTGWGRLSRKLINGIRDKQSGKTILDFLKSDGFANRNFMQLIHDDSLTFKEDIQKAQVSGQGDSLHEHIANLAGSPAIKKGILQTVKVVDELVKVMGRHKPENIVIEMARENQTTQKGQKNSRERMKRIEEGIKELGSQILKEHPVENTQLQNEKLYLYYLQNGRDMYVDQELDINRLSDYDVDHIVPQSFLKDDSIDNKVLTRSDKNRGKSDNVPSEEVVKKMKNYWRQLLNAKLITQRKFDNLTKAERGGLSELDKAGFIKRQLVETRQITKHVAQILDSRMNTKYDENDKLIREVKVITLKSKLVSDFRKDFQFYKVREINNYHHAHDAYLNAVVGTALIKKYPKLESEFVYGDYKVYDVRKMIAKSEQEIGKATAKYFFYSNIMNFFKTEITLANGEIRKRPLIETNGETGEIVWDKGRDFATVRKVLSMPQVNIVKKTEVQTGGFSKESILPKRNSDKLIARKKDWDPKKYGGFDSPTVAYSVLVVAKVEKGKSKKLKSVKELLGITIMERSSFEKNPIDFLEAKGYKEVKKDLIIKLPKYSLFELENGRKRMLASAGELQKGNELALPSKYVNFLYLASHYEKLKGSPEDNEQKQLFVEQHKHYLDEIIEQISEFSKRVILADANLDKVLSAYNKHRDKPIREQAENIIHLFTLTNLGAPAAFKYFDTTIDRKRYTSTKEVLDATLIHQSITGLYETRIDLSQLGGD

## COc1ccc(-c2nn3c(-c4ccc5ccccc5n4)nnc3s2)cc1OC [Compound D727-0743]
  Normalized Z rep1: −0.03
  Z score Rep1: −0.23
  SpCas9 eGFP disruption Rep1: 66.254
  Normalized Z rep2: −0.13
  Z socre Rep2: −1.19
  SpCas9 eGFP disruption Rep2: 59.503

## Clc1ccccc1OCc1nn2c(-c3ccccn3)nnc2s1 [Compound D727-0524]
  Normalized Z rep1: −0.39
  Z score Rep1: −2.83
  SpCas9 eGFP disruption Rep1: 57.663
  Normalized Z rep2: −0.16
  Z socre Rep2: −1.47
  SpCas9 eGFP disruption Rep2: 58.659

## c1cncc(-c2nnc3sc(Cc4ccc5c(c4)OCCO5)nn23)c1 [Compound D727-0088]
  Normalized Z rep1: −0.24
  Z score Rep1: −1.77
  SpCas9 eGFP disruption Rep1: 61.161
  Normalized Z rep2: −0.08
  Z socre Rep2: −0.75
  SpCas9 eGFP disruption Rep2: 60.83

## Fc1cccc(-c2nnc3sc(-c4ccc5ccccc5n4)nn23)c1 [Compound D727-0892]
  Normalized Z rep1: −0.28
  Z score Rep1: −2.03
  SpCas9 eGFP disruption Rep1: 60.296
  Normalized Z rep2: −0.34
  Z socre Rep2: −3.13
  SpCas9 eGFP disruption Rep2: 53.657

## Cc1nc2ccccc2n1Cc1nnc2sc(-c3cccnc3)nn12 [Compound D727-0182]
  Normalized Z rep1: −0.45
  Z score Rep1: −3.22
  SpCas9 eGFP disruption Rep1: 56.36
  Normalized Z rep2: 0.14
  Z socre Rep2: 1.30
  SpCas9 eGFP disruption Rep2: 67.01

## CCCCN(CC)C(=O)C1CCCN(c2ccc(-c3ccccc3C)nn2)C1 (stereo not drawn) [Compound F305-0129]
  Normalized Z rep1: −0.32
  Z score Rep1: −2.35
  SpCas9 eGFP disruption Rep1: 59.262
  Normalized Z rep2: −0.38
  Z socre Rep2: −3.50
  SpCas9 eGFP disruption Rep2: 52.541

## Fc1cccc(-c2nn3c(-c4ccc5ccccc5n4)nnc3s2)c1 [D727-0740]
  Normalized Z rep1: −0.57
  Z score Rep1: −4.14
  SpCas9 eGFP disruption Rep1: 53.347
  Normalized Z rep2: −0.08
  Z socre Rep2: −0.74
  SpCas9 eGFP disruption Rep2: 60.86

## c1ccc(-c2nnc3sc(-c4ccc5c(c4)OCO5)nn23)nc1 [Compound D727-0536]
  Normalized Z rep1: −0.16
  Z score Rep1: −1.18
  SpCas9 eGFP disruption Rep1: 63.106
  Normalized Z rep2: −0.09
  Z socre Rep2: −0.86
  SpCas9 eGFP disruption Rep2: 60.482

## Fc1cccc(-c2nnc3sc(CCCc4ccccc4)nn23)c1 [Compound D727-0404]
  Normalized Z rep1: −0.14
  Z score Rep1: −0.99
  SpCas9 eGFP disruption Rep1: 63.741
  Normalized Z rep2: −0.34
  Z socre Rep2: −3.13
  SpCas9 eGFP disruption Rep2: 53.633

## Cc1ccc(-c2nn3c(-c4cccnc4)nnc3s2)cc1 [Compound D727-0047]
  Normalized Z rep1: −0.34
  Z score Rep1: −2.47
  SpCas9 eGFP disruption Rep1: 58.846
  Normalized Z rep2: −0.29
  Z socre Rep2: −2.72
  SpCas9 eGFP disruption Rep2: 54.891

## O=C(NCC1CCCO1)c1sc(=S)n2c1[nH]c(=O)c1cc3c(cc12)OCO3 (stereo not drawn) [Compound F083-0416]
  Normalized Z rep1: −0.32
  Z score Rep1: −2.28
  SpCas9 eGFP disruption Rep1: 59.472
  Normalized Z rep2: −0.05
  Z socre Rep2: −0.49
  SpCas9 eGFP disruption Rep2: 61.595

## Cc1cc(Sc2ccccc2NC(=O)c2cccc(F)c2)n2ncnc2n1 [Compound F518-0008]
  Normalized Z rep1: −0.22
  Z score Rep1: −2.00
  SpCas9 eGFP disruption Rep1: 59.029
  Normalized Z rep2: −0.20
  Z socre Rep2: −3.02
  SpCas9 eGFP disruption Rep2: 61.293

## NC(=O)c1sc(=S)n2c1[nH]c(=O)c1cc(Cl)ccc12 [Compound F083-0005]
  Normalized Z rep1: −0.23
  Z score Rep1: −1.66
  SpCas9 eGFP disruption Rep1: 61.541
  Normalized Z rep2: −0.12
  Z socre Rep2: −1.09
  SpCas9 eGFP disruption Rep2: 59.801

## Clc1cccc(-c2nnc3sc(-c4ccc5ccccc5n4)nn23)c1 [Compound D727-0890]
  Normalized Z rep1: −0.17
  Z score Rep1: −1.24
  SpCas9 eGFP disruption Rep1: 62.913
  Normalized Z rep2: −0.22
  Z socre Rep2: −2.01
  SpCas9 eGFP disruption Rep2: 57.037

## CCCCNC(=O)CN1CCN(c2ccc(C(=O)O)cc2NC(=O)c2ccccc2Cl)CC1 [Compound F086-0029]
  Normalized Z rep1: −0.30
  Z score Rep1: −2.20
  SpCas9 eGFP disruption Rep1: 59.751
  Normalized Z rep2: −0.05
  Z socre Rep2: −0.46
  SpCas9 eGFP disruption Rep2: 61.703

## Fc1ccc(-c2nn3c(-c4ccncc4)nnc3s2)cc1Br [Compound D727-0883]
  Normalized Z rep1: −0.13
  Z score Rep1: −0.93
  SpCas9 eGFP disruption Rep1: 63.924
  Normalized Z rep2: −0.09
  Z socre Rep2: −0.88
  SpCas9 eGFP disruption Rep2: 60.422

## O=C(O)c1cc(N2CCCC2)ccc1NC(=O)C1CCCC1 [Compound F685-1588]
  Normalized Z rep1: −0.26
  Z score Rep1: −2.44
  SpCas9 eGFP disruption Rep1: 57.803
  Normalized Z rep2: −0.23
  Z socre Rep2: −3.36
  SpCas9 eGFP disruption Rep2: 60.73

## COc1ccc(S(=O)(=O)CCC(=O)Nc2nc(-c3ccncc3)cs2)cc1 [Cpd4]
  Normalized Z rep1: −0.26
  Z score Rep1: −3.70
  SpCas9 eGFP disruption Rep1: 48.322
  Normalized Z rep2: −0.20
  Z socre Rep2: −4.05
  SpCas9 eGFP disruption Rep2: 47.796

## CCC(=O)Nc1ccccc1Sc1cc(C)nc2ncnn12 [Compound F518-0049]
  Normalized Z rep1: −0.09
  Z score Rep1: −0.86
  SpCas9 eGFP disruption Rep1: 62.276
  Normalized Z rep2: −0.23
  Z socre Rep2: −3.42
  SpCas9 eGFP disruption Rep2: 60.623

## Cc1nn(-c2ccccc2)c(C)c1CCc1nn2c(-c3cnccn3)nnc2s1 [Compound D727-0838]
  Normalized Z rep1: −0.12
  Z score Rep1: −0.86
  SpCas9 eGFP disruption Rep1: 64.17
  Normalized Z rep2: −0.21
  Z socre Rep2: −1.92
  SpCas9 eGFP disruption Rep2: 57.281

## COc1ccc(CCc2nnc3sc(-c4ccncc4)nn23)cc1OC [Compound D727-0712]
  Normalized Z rep1: −0.16
  Z score Rep1: −1.13
  SpCas9 eGFP disruption Rep1: 63.284
  Normalized Z rep2: −0.29
  Z socre Rep2: −2.66
  SpCas9 eGFP disruption Rep2: 55.062

## CC(C)(C)OC(=O)NCCOc1ccc(S(=O)(=O)CCC(=O)Nc2nc(-c3ccncc3)cs2)cc1 [Cpd6]
  Normalized Z rep1: −0.10
  Z score Rep1: −1.44
  SpCas9 eGFP disruption Rep1: 54.15
  Normalized Z rep2: 0.06
  Z socre Rep2: 1.16
  SpCas9 eGFP disruption Rep2: 57.456

## CN(C)c1ccc(-c2nn3c(-c4ccc5ccccc5n4)nnc3s2)cc1 [Compound D727-0755]
  Normalized Z rep1: −0.11
  Z score Rep1: −0.83
  SpCas9 eGFP disruption Rep1: 64.271
  Normalized Z rep2: −0.09
  Z socre Rep2: −0.79
  SpCas9 eGFP disruption Rep2: 60.694
